Molecules are shown by their SMILES.

The subject of one series is RD cells. Nature of the series: Detection of cytotoxicity in RD cells (CellTiter-Glo). The conditions noted are these: 4 days, CellTiter-Glo, median toxic dose. It is filed as cell-based. The method, boiled down:
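RD cells (1*10^5/mL) cultured 4 days at 37 °C with 10 compound concentrations from 3-fold dilution of a 400 μM pretreatment solution, final being 0.5 times that. Viability by CellTiter-Glo luminescence versus cell control; TD50 from S-curve fit; SI=TD50/IC50.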
A general note: Cellular ATP, detected with luciferase, serves as a proxy for viable cell number.

A further series deals with T1, mTORC2 (Homo sapiens, UniProt P42345).
T1 construct: endogenous in cells; host or cells: RD cells
Description: Western blot, phosphorylation of Ser473 of Akt in RD cells (mTORC2 inhibition). It is filed as cell-based. The conditions noted are these: 20 μM, 2 hours, Western blot (FIG. 1). As for the experimental part:
In order to test the inhibitory activity of the synthesized compounds on the two mTOR complexes, the inhibitory activity experiments of mTORC1 and mTORC2 were carried out. Since mTORC1 and mTORC2 exerted their function by activating the phosphorylation of downstream substrates, the inhibitory activity of the compounds on mTORC1 and mTORC2 could be determined by detecting the phosphorylation levels of the Thr389 site of mTORC1 downstream substrate p70S6K1 and the Ser473 site of mTORC2 downstream substrate Akt.
Pretreatment of Compound:
(1) RD cells were cultured in DMEM medium containing 10% FBS and 1×PS (penicillin and streptomycin were at concentrations 100 IU and 100 μg/mL, respectively) at 37° C. and 5% CO2.
(2) The RD cells (5×10^5 cells/2 mL medium) were inoculated into a 6-well plate and incubated at 37° C. and 5% CO2 for 24 hours.
(3) The cells were washed once with PBS, and the cells were cultured in serum-free medium without nutrients overnight.
(4) Formulation of compounds: […]
Preparation of insulin medium: Insulin was diluted in DMEM medium containing 10% FBS and 1×PS so that the final concentration of insulin was 167 nM.
Pretreatment of compound to be tested: The compound was dissolved in DMSO so that the concentration of the test compound was 20 mM, and the compound was diluted in 167 nM insulin medium to reach a concentration of 20 μM.
Preparation of rapamycin solution: Rapamycin was dissolved in DMSO to a concentration of 10 mM, and the rapamycin was diluted in 167 nM insulin medium to reach a concentration of 20 μM.
(5) The serum-free medium in each well was removed.
(6) 2 mL of complete medium containing DMSO was added to each well as a control carrier. The final concentration of DMSO was 0.2%.
(7) 2 mL of 20 μM rapamycin solution and 20 μM the compound to be tested were added to the designated wells, respectively. The final concentration of DMSO was 0.2%.
(8) The cells were incubated for 2 hours at 37° C. and 5% CO2.
Protein extraction and concentration determination:
(1) The cells were washed once with refrigerated PBS, and then the PBS was discarded.
(2) 150 μL of cell extraction buffer (RIPA, […], catalog number: C1053) was transferred into each well to lyse the cells, and then the resulting cell solution were incubated on ice for 30 minutes.
(3) Centrifugation was performed at 14000 rpm (13000× g) for 30 minutes at 4° C.
(4) The supernatant was transferred into a new eppendorf tube, and the cell lysate was stored at −80° C. before testing.
(5) The protein concentration was determined by BCA method.
Preparation of Buffer Solutions:
(1) 100× Protease inhibitor (Beyotime, catalog number: P1005): 1 mL of redistilled water was added to the protease inhibitor and stirred gently until the solid was completely dissolved.
(2) Lysis Buffer: […] of 100× protease inhibitor and 2× phosphatase inhibitor Cocktails PhosSTOP (Beyotime, catalog number: P1082) were added to 100 mL of the cell extract, and stirred gently until it was completely dissolved.
(3) Electrophoresis Running Buffer:
10×MOPS buffer: 52.33 g of MOPS, 30.29 g of Tris base, 10 mL of 0.5 mol/L EDTA (pH 8.5) and 5 g of SDS was dissolved in 400 mL of redistilled water, stirred to dissolve, and the pH was adjusted to 7.5, then redistilled water was added again to reach a volume of 500 mL; 1×MOPS: 100 mL of 10×MOPS was diluted with redistilled water to 1000 mL.
(4) 1× Transfer Buffer: […] of 10× transfer buffer (144 g of glucine, 30.3 g of trisbase, and distilled water were mixed to reach a volume of 1 L) and 400 mL of methanol were dissolved in 1500 mL of redistilled water, and then the redistilled water was added to reach a volume of 2000 mL. […]
Background: Immunoblotting shows a protein as a band on a membrane.

`O=C(Nc1ccc(-c2ccc3ncc4ccc(=O)n(-c5cccc(C(F)(F)F)c5)c4c3c2)cn1)OCc1ccccc1` [HTL-7-14, 9-[3-(6-benzyloxyamido)pyridyl]-2-oxo-1-[3-(trifluoromethyl)phenyl]-1,2-dihydrobenzo[h][1,6]naphthyridine] returned a TD50 in the series with RD cells of 1.00 ± 0.81 µM. Also, the “phosphorylation expression level of Akt” value on mTORC2 was “significantly down-regulate”.

As to `O=C(Nc1ccc(-c2ccc3ncc4ccc(=O)n(-c5cccc(C(F)(F)F)c5)c4c3c2)cn1)Oc1ccccc1` [HTL-7-15, 9-[3-(6-phenoxyamido)pyridyl]-2-oxo-1-[3-(trifluoromethyl)phenyl]-1,2-dihydrobenzo[h][1,6]naphthyridine], the TD50 with RD cells is 0.20 ± 0.09 µM. For the same molecule, the “phosphorylation expression level of Akt” value at mTORC2 was “significantly down-regulate”.

Turning to `CN(C)c1ccc(-c2ccc3ncc4ccc(=O)n(-c5cccc(C(F)(F)F)c5)c4c3c2)cn1` [HTL-7-16, 9-[3-(6-N,N-dimethyl)pyridyl]-2-oxo-1-[3-(trifluoromethyl)phenyl]-1,2-dihydrobenzo[h][1,6]naphthyridine], the TD50 in the series on RD cells was found to be 0.17 ± 0.06 µM. At mTORC2, the “phosphorylation expression level of Akt” value was “significantly down-regulate”.

In the case of `CN1CCN(c2ccc(-c3ccc4ncc5ccc(=O)n(-c6cccc(C(F)(F)F)c6)c5c4c3)cn2)CC1` [HTL-7-17, 9-{3-[6-(4-methylpiperazin-1-yl)pyridyl]}-2-oxo-1-[3-(trifluoromethyl)phenyl]-1,2-dihydrobenzo[h][1,6]naphthyridine], in the series with RD cells, the TD50 was determined as 0.18 ± 0.15 µM. Moreover, the “phosphorylation expression level of Akt” value on mTORC2 was “significantly down-regulate”.

Turning to `O=c1ccc2cnc3ccc(-c4ccc(N5CCOCC5)nc4)cc3c2n1-c1cccc(C(F)(F)F)c1` [HTL-7-18, 9-[3-(6-morpholin-4-yl)pyridyl]-2-oxo-1-[3-(trifluoromethyl)phenyl]-1,2-dihydrobenzo[h][1,6]naphthyridine], the TD50 in the series on RD cells stood at 2.91 ± 1.16 µM. Also, the “phosphorylation expression level of Akt” value on mTORC2 is reported as “significantly down-regulate”.

In the series on RD cells, `COc1cc(-c2ccc3ncc4ccc(=O)n(-c5cccc(C(F)(F)F)c5)c4c3c2)cnc1N` [HTL-7-19, 9-[3-(6-amino-5-methoxy)pyridyl]-2-oxo-1-[3-(trifluoromethyl)phenyl]-1,2-dihydrobenzo[h][1,6]naphthyridine] showed a TD50 of 0.06 ± 0.02 µM. The “phosphorylation expression level of Akt” value at mTORC2 is “significantly down-regulate”.

For `O=c1ccc2cnc3ccc(-c4ccc(N5CCCC5)nc4)cc3c2n1-c1cccc(C(F)(F)F)c1` [HTL-7-20, 9-[3-(6-pyrrolidinyl)pyridyl]-2-oxo-1-[3-(trifluoromethyl)phenyl]-1,2-dihydrobenzo[h][1,6]naphthyridine], the TD50 with RD cells turned out to be 1.79 ± 0.67 µM. Further, the “phosphorylation expression level of Akt” value on mTORC2 is given as “significantly down-regulate”.

`CC(C)(C)OC(=O)Nc1ccc(-c2ccc3ncc4ccc(=O)n(-c5cccc(C(F)(F)F)c5)c4c3c2)cn1` [HTL-7-21, 9-[3-(6-tert-butoxycarbonylamino)pyridyl]-2-oxo-1-[3-(trifluoromethyl)phenyl]-1,2-dihydrobenzo[h][1,6]naphthyridine]: the TD50 in the series on RD cells was determined as 0.69 ± 0.50 µM. In addition, the “phosphorylation expression level of Akt” value at mTORC2 is “significantly down-regulate”.

The record behind these values is patent US20220220106A1, “QUINOLINE COMPOUNDS AND PHARMACEUTICAL COMPOSITIONS AND USES THEREOF” (Academy of Military Medical Sciences, priority 2019, published 2022).
